Assay results published in patent US5604262A, “Topical antimicrobial agents” (Research Corporation Technologies, Inc., priority 1995, dated 1997).
Values after ≈ are worked out from the molar mass of the structure shown.

Key:
fungi = conditions: Moleyar et al. 1986; cited from earlier work
[1] = test system: Bacillus subtilis ATCC 9372; experiment: MIC by two-fold serial broth dilution; assay type: cell-based; conditions: B. subtilis; for MIC: Bacillus subtilis, ATCC9372, 48 h, NYG broth, two days, turbidity OD 660 nm
Description: (§1) The microorganisms tested were from the American Type Culture Collection (Rockville, Md.). They are Bacillus subtilis ATCC 9372, Brevibacterium ammoniagenes ATCC 6872, Staphylococcus aureus ATCC 12598, Streptococus mutans ATCC 25175, Propionibacterium acnes ATCC 11827, Pseudimonas aeruginosa ATCC 10145, Enterobacter aerogenes ATCC 13048, Eschericia coli ATCC 9637, Proteus vulgaris ATCC […], Saccharomyces cerevisiae ATCC 7754, Candida utilis ATCC 9226, Pityrosporum ovale ATCC 14521, Penicillium chrysogenum ATCC 10106 and Trichophyton mentagrophytes ATCC 18748.
(§2) The bacterial culture media except for S. mutans was 0.8% nutrient broth (BBL), 0.5% yeast Extract (Difco) and 0.1% glucose (NYG broth). S. mutans was cultured in 3.7% brain heart infixsion broth (Difco). All fungi, except P. ovale and T. mentagrophytes were cultured in a 2.5% malt extract broth (BBL). P. ovale was cultured in 1% bactopeptone (Difco), 0.5% yeast extract, 1% glucose and 0.1% corn oil. For T. mentagrophytes the culture media was 1% bactopeptone and 4% glucose.
(§3) Freeze dried samples were prepared for testing as follows. B. subtilis, S. cerevisiae, C. utilis, and P. ovale, were shake-cultured for two days at 30° C. P. chrysogenum and T. mentagrophytes were shake-cultured for 5 days at 30° C. B. ammoniagenes and E. aerogenes were stationarily cultured at 30° C. S. aureus, S. mutans, P. acnes, P. aeruginosa, E. coli and P. vulgaris were stationarily cultured at 37° C.
(§4) The minimum inhibitory concentration (MIC) of the 3-alken-2-ones (compounds 1-4, 6-8) and 3,13-tetradecadien-2-one (compound 5) was performed using a two-fold serial broth dilution. Each test compound was dissolved in DMF and 30 μL of this sample was dissolved in 3 mL of the applicable medium. A 30 μL sample of the previously described culture of each microorganism was added to the various medium solutions. After two days, the cultures of B. subtilis, S. cerevisiae, C. utilis B. ammoniagenes, E. aerogenes, S. aureus, S. mutans, P. acnes, P. aeruginosa, E. coli and P. vulgaris were examined for turbidity (OD at 660 nm). The fungi, P. ovale, P. chrysogenum and T. mentagrophytes, were examined visually for growth at 3 days (P. ovale) and 5 days (P. chrysogenum and T. mentagrophytes). The MIC was determined as the lowest concentration for each compound that no growth was observed. The highest concentration used in these tests was 800 μg/mL.

[2] = test system: Brevibacterium ammoniagenes ATCC 6872; experiment: MIC by two-fold serial broth dilution; assay type: cell-based; conditions: B. ammoniagenes; for MIC: Corynebacterium ammoniagenes, ATCC6872, 48 h, NYG broth, two days, turbidity OD 660 nm
Description: as §1, §2, §3, §4

[3] = test system: Enterobacter aerogenes ATCC 13048; experiment: MIC by two-fold serial broth dilution; assay type: cell-based; conditions: E. aerogenes; for MIC: Klebsiella aerogenes, ATCC13048, 48 h, NYG broth, two days, turbidity OD 660 nm
Description: as §1, §2, §3, §4

[4] = test system: Eschericia coli ATCC 9637; experiment: MIC by two-fold serial broth dilution; assay type: cell-based; conditions: E. coli; for MIC: Escherichia coli, ATCC9637, 48 h, NYG broth, two days, turbidity OD 660 nm
Description: as §1, §2, §3, §4

[5] = test system: Penicillium chrysogenum ATCC 10106; experiment: MIC by two-fold serial broth dilution; assay type: cell-based; conditions: P. chrysogenum; for MIC: Penicillium chrysogenum, ATCC10106, 120 h, malt extract broth, 5 days, visual
Description: as §1, §2, §3, §4

[6] = test system: Pityrosporum ovale ATCC 14521; experiment: MIC by two-fold serial broth dilution; assay type: cell-based; conditions: P. ovale; for MIC: 72 h, bactopeptone/yeast extract/glucose/corn oil, 3 days, visual
Description: as §1, §2, §3, §4

[7] = test system: Propionibacterium acnes ATCC 11827; experiment: MIC by two-fold serial broth dilution; assay type: cell-based; conditions: P. acnes; for MIC: Cutibacterium acnes, ATCC11827, 48 h, NYG broth, two days, turbidity OD 660 nm
Description: as §1, §2, §3, §4

[8] = test system: Proteus vulgaris ATCC 133315; experiment: MIC by two-fold serial broth dilution; assay type: cell-based; conditions: ATCC133315, 48 h, P. vulgaris, NYG broth, two days, turbidity OD 660 nm
Description: as §1, §2, §3, §4

[9] = test system: Pseudimonas aeruginosa ATCC 10145; experiment: MIC by two-fold serial broth dilution; assay type: cell-based; conditions: P. aeruginosa; for MIC: Pseudomonas aeruginosa, ATCC10145, 48 h, NYG broth, two days, turbidity OD 660 nm
Description: as §1, §2, §3, §4

[10] = test system: Saccharomyces cerevisiae ATCC 7754; experiment: MIC by two-fold serial broth dilution; assay type: cell-based; conditions: S. cerevisiae; for MIC: Saccharomyces cerevisiae, ATCC7754, 48 h, malt extract broth, two days, turbidity OD 660 nm
Description: as §1, §2, §3, §4

[11] = test system: Staphylococcus aureus ATCC 12598; experiment: MIC by two-fold serial broth dilution; assay type: cell-based; conditions: S. aureus; for MIC: Staphylococcus aureus, ATCC12598, 48 h, NYG broth, two days, turbidity OD 660 nm
Description: as §1, §2, §3, §4

[12] = test system: Streptococus mutans ATCC 25175; experiment: MIC by two-fold serial broth dilution; assay type: cell-based; conditions: S. mutans; for MIC: Streptococcus mutans, ATCC25175, 48 h, brain heart infusion broth, two days, turbidity OD 660 nm
Description: as §1, §2, §3, §4

[13] = test system: Trichophyton mentagrophytes ATCC 18748; experiment: MIC by two-fold serial broth dilution; assay type: cell-based; conditions: ATCC18748, 120 h, T. mentagrophytes, bactopeptone/glucose, 5 days, visual
Description: as §1, §2, §3, §4

Candia utilis ATCC 9226 = experiment: MIC by two-fold serial broth dilution; assay type: cell-based, Candida utilis; conditions: C. utilis; for MIC: Williopsis jadinii, ATCC9226, 48 h, malt extract broth, two days, turbidity OD 660 nm
Description: as §1, §2, §3, §4

[14] = test system: bacteria and fungi in the test, except S. mutans and P. acnes; experiment: MIC test, all bacteria and fungi except S. mutans and P. acnes; assay type: cell-based; conditions: all of the bacteria and fungi in the test
Description: as §1, §2
Freeze dried samples were prepared for testing as follows. […]
The minimum inhibitory concentration (MIC) of the 3-alken-2-ones (compounds 1-4, 6-8) and 3,13-tetradecadien-2-one (compound 5) was performed using a two-fold serial broth dilution. […] The MIC was determined as the lowest concentration for each compound that no growth was observed. […]

Structure (SMILES) | MIC [1] | MIC [2] | MIC [3] | MIC [4] | MIC [5] | MIC [6] | MIC [7] | MIC [8] | MIC [9] | MIC [10] | MIC [11] | MIC [12] | MIC [13] | MIC (Candia utilis ATCC 9226) | activity (in words) [7] | activity (in words) [12] | other results
C=C(C)C1CC=C(C)C(=O)C1 (stereo not drawn) [Carvone] | – | – | – | – | – | – | – | – | – | – | – | – | – | – | – | – | antifungal activity (in words) (fungi): antifungal activity
CCCCCCC/C=C/C(C)=O [Compound 1, (E)-3-Undecen-2-one] | 100 µg/mL (≈ 594 µM) | 200 µg/mL (≈ 1190 µM) | > 800 µg/mL | > 800 µg/mL | 100 µg/mL (≈ 594 µM) | 100 µg/mL (≈ 594 µM) | 50 µg/mL (≈ 297 µM) | 50 µg/mL (≈ 297 µM) | > 800 µg/mL | 800 µg/mL (≈ 4750 µM) | 200 µg/mL (≈ 1190 µM) | 100 µg/mL (≈ 594 µM) | 100 µg/mL (≈ 594 µM) | 50 µg/mL (≈ 297 µM) | – | – | –
CCCCCCCC/C=C/C(C)=O [Compound 2, (E)-3-Dodecen-2-one] | 100 µg/mL (≈ 549 µM) | 100 µg/mL (≈ 549 µM) | > 800 µg/mL | > 800 µg/mL | 100 µg/mL (≈ 549 µM) | 100 µg/mL (≈ 549 µM) | 25 µg/mL (≈ 137 µM) | 50 µg/mL (≈ 274 µM) | > 800 µg/mL | 800 µg/mL (≈ 4390 µM) | 100 µg/mL (≈ 549 µM) | 50 µg/mL (≈ 274 µM) | 100 µg/mL (≈ 549 µM) | 400 µg/mL (≈ 2190 µM) | – | – | –
CCCCCCCCC/C=C/C(C)=O [Compound 3, (E)-3-Tridecen-2-one] | 100 µg/mL (≈ 509 µM) | 100 µg/mL (≈ 509 µM) | > 800 µg/mL | > 800 µg/mL | 800 µg/mL (≈ 4070 µM) | 100 µg/mL (≈ 509 µM) | 12.5 µg/mL (≈ 63.7 µM) | 800 µg/mL (≈ 4070 µM) | > 800 µg/mL | > 800 µg/mL | 50 µg/mL (≈ 255 µM) | 25 µg/mL (≈ 127 µM) | 25 µg/mL (≈ 127 µM) | > 800 µg/mL | showed activity | showed activity | activity (in words) [1]: showed activity; activity (in words) [2]: showed activity; activity (in words) [3]: not active; activity (in words) [4]: not active; activity (in words) [5]: Weak activity; activity (in words) [6]: moderate inhibition; activity (in words) [9]: not active; activity (in words) [10]: no activity; activity (in words) [11]: showed activity; activity (in words) (Candia utilis ATCC 9226): no activity
CCCCCCCCCC/C=C/C(C)=O [Compound 4, (E)-3-Tetradecen-2-one] | > 800 µg/mL | > 800 µg/mL | > 800 µg/mL | > 800 µg/mL | 800 µg/mL (≈ 3800 µM) | 100 µg/mL (≈ 475 µM) | 12.5 µg/mL (≈ 59.4 µM) | > 800 µg/mL | > 800 µg/mL | > 800 µg/mL | > 800 µg/mL | 25 µg/mL (≈ 119 µM) | 12.5 µg/mL (≈ 59.4 µM) | > 800 µg/mL | showed activity | showed activity | activity (in words) [3]: not active; activity (in words) [4]: not active; activity (in words) [5]: Weak activity; activity (in words) [6]: moderate inhibition; activity (in words) [9]: not active; activity (in words) [10]: no activity; activity (in words) (Candia utilis ATCC 9226): no activity
C=CCCCCCCCC/C=C/C(C)=O [Compound 5, (E)-3,13-Tetradecadien-2-one] | > 800 µg/mL | > 800 µg/mL | > 800 µg/mL | > 800 µg/mL | 800 µg/mL (≈ 3840 µM) | 200 µg/mL (≈ 960 µM) | 12.5 µg/mL (≈ 60 µM) | > 800 µg/mL | > 800 µg/mL | > 800 µg/mL | > 800 µg/mL | 25 µg/mL (≈ 120 µM) | 12.5 µg/mL (≈ 60 µM) | > 800 µg/mL | – | – | –
CCCCCCCCCCC/C=C/C(C)=O [Compound 6, (E)-3-Pentadecen-2-one] | > 800 µg/mL | > 800 µg/mL | > 800 µg/mL | > 800 µg/mL | > 800 µg/mL | 400 µg/mL (≈ 1780 µM) | 6.25 µg/mL (≈ 27.9 µM) | > 800 µg/mL | > 800 µg/mL | > 800 µg/mL | > 800 µg/mL | 200 µg/mL (≈ 891 µM) | 800 µg/mL (≈ 3570 µM) | > 800 µg/mL | – | – | –
CCCCCCCCCCCC/C=C/C(C)=O [Compound 7, (E)-3-Hexadecen-2-one] | > 800 µg/mL | > 800 µg/mL | > 800 µg/mL | > 800 µg/mL | > 800 µg/mL | > 800 µg/mL | 3.13 µg/mL (≈ 13.1 µM) | > 800 µg/mL | > 800 µg/mL | > 800 µg/mL | > 800 µg/mL | 400 µg/mL (≈ 1680 µM) | > 800 µg/mL | > 800 µg/mL | strong activity | weakly active | activity (in words) [14]: inactive
